Test results published in PubChem BioAssay AID1918948 (Molecular Pharmacology Branch, DTP, NCI, 2023).

Tested on: K-562 leukemia growth, % test/control
Test: Anticancer human tumor K-562 cell line growth inhibition;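 further: spheroids exposed to compounds for 7 days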;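 on viability, T/C: 100% = DMSO vehicle wells and lower values mean fewer viable cells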
Conditions: spheroids with HUVEC and MSC; for IC50: curve of first compound; for viability, T/C: stronger effect = lower value
In short: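 Multicellular complex spheroids of tumor cells with human endothelial cells (HUVEC) and mesenchymal stem cells; the LSD1 inhibitor iadademstat was combined with standard-of-care or investigational agents. Top concentration at or near clinical Cmax, half-log dilutions; final DMSO ≤0.25%.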

[1] = second compound 0.1 µM, first compound 0.000949 µM
[2] = second compound 0.1 µM, first compound 0.003 µM
[3] = second compound 0.1 µM, first compound 0.00949 µM
[4] = second compound 0.1 µM, first compound 0.03 µM
[5] = second compound 0.1 µM, first compound 0.0949 µM
[6] = second compound 0.1 µM, first compound 0.3 µM
[7] = second compound 0.316 µM, first compound 0.000949 µM
[8] = second compound 0.316 µM, first compound 0.003 µM
[9] = second compound 0.316 µM, first compound 0.00949 µM
[10] = second compound 0.316 µM, first compound 0.03 µM
[11] = second compound 0.316 µM, first compound 0.0949 µM
[12] = second compound 0.316 µM, first compound 0.3 µM
[13] = second compound 1 µM, first compound 0.000949 µM
[14] = second compound 1 µM, first compound 0.003 µM
[15] = second compound 1 µM, first compound 0.00949 µM
[16] = second compound 1 µM, first compound 0.03 µM
[17] = second compound 1 µM, first compound 0.0949 µM
[18] = second compound 1 µM, first compound 0.3 µM
[19] = second compound 3.16 µM, first compound 0.000949 µM
[20] = second compound 3.16 µM, first compound 0.003 µM
[21] = second compound 3.16 µM, first compound 0.00949 µM
[22] = second compound 3.16 µM, first compound 0.03 µM
[23] = second compound 3.16 µM, first compound 0.0949 µM
[24] = second compound 3.16 µM, first compound 0.3 µM
[25] = second compound 10 µM, first compound 0.000949 µM
[26] = second compound 10 µM, first compound 0.003 µM
[27] = second compound 10 µM, first compound 0.00949 µM
[28] = second compound 10 µM, first compound 0.03 µM
[29] = second compound 10 µM, first compound 0.0949 µM
[30] = second compound 10 µM, first compound 0.3 µM

CC[C@@]1(O)C(=O)OCc2c1cc1n(c2=O)Cc2cc3c(CN(C)C)c(O)ccc3nc2-1 + NC1CCC(NC2CC2c2ccccc2)CC1
IC50 (second compound 0.1 µM): 1.7 nM | IC50 (second compound 0.316 µM): 1.73 nM | IC50 (second compound 1 µM): 1.69 nM | IC50 (second compound 3.16 µM): 1.77 nM | IC50 (second compound 10 µM): 1.53 nM | viability, T/C (second compound 0.1 µM, first compound 0.000316 µM): 98.9% | viability, T/C (second compound 0.1 µM, first compound 0.001 µM): 63.2% | viability, T/C (second compound 0.1 µM, first compound 0.00316 µM): 34.7% | viability, T/C (second compound 0.1 µM, first compound 0.01 µM): 16.3% | viability, T/C (second compound 0.1 µM, first compound 0.0316 µM): 8.26% | viability, T/C (second compound 0.1 µM, first compound 0.1 µM): 4.03% | viability, T/C (second compound 0.316 µM, first compound 0.000316 µM): 101% | viability, T/C (second compound 0.316 µM, first compound 0.001 µM): 64.6% | viability, T/C (second compound 0.316 µM, first compound 0.00316 µM): 33.9% | viability, T/C (second compound 0.316 µM, first compound 0.01 µM): 15.8% | viability, T/C (second compound 0.316 µM, first compound 0.0316 µM): 7.94% | viability, T/C (second compound 0.316 µM, first compound 0.1 µM): 3.55% | viability, T/C (second compound 1 µM, first compound 0.000316 µM): 99.5% | viability, T/C (second compound 1 µM, first compound 0.001 µM): 64.5% | viability, T/C (second compound 1 µM, first compound 0.00316 µM): 32.8% | viability, T/C (second compound 1 µM, first compound 0.01 µM): 14.4% | viability, T/C (second compound 1 µM, first compound 0.0316 µM): 6.59% | viability, T/C (second compound 1 µM, first compound 0.1 µM): 3.47% | viability, T/C (second compound 3.16 µM, first compound 0.000316 µM): 97.6% | viability, T/C (second compound 3.16 µM, first compound 0.001 µM): 65.3% | viability, T/C (second compound 3.16 µM, first compound 0.00316 µM): 34.5% | viability, T/C (second compound 3.16 µM, first compound 0.01 µM): 15.1% | viability, T/C (second compound 3.16 µM, first compound 0.0316 µM): 7.29% | viability, T/C (second compound 3.16 µM, first compound 0.1 µM): 4.79% | viability, T/C (second compound 10 µM, first compound 0.000316 µM): 94.3% | viability, T/C (second compound 10 µM, first compound 0.001 µM): 62.6% | viability, T/C (second compound 10 µM, first compound 0.00316 µM): 28.1% | viability, T/C (second compound 10 µM, first compound 0.01 µM): 12.8% | viability, T/C (second compound 10 µM, first compound 0.0316 µM): 5.5% | viability, T/C (second compound 10 µM, first compound 0.1 µM): 2.86%

CCc1c2c(nc3ccc(O)cc13)-c1cc3c(c(=O)n1C2)COC(=O)[C@]3(O)CC + NC1CCC(NC2CC2c2ccccc2)CC1
IC50 (second compound 0.1 µM): < 0.949 nM | IC50 (second compound 0.316 µM): < 0.949 nM | IC50 (second compound 1 µM): < 0.949 nM | IC50 (second compound 3.16 µM): < 0.949 nM | IC50 (second compound 10 µM): < 0.949 nM | viability, T/C [1]: 5.18% | viability, T/C [2]: 3.15% | viability, T/C [3]: 1.66% | viability, T/C [4]: 1.09% | viability, T/C [5]: 0.45% | viability, T/C [6]: 0.5% | viability, T/C [7]: 5.49% | viability, T/C [8]: 3.06% | viability, T/C [9]: 1.72% | viability, T/C [10]: 2.09% | viability, T/C [11]: 0.56% | viability, T/C [12]: 0.51% | viability, T/C [13]: 5.31% | viability, T/C [14]: 3.05% | viability, T/C [15]: 1.8% | viability, T/C [16]: 1.24% | viability, T/C [17]: 1.88% | viability, T/C [18]: 0.5% | viability, T/C [19]: 5.35% | viability, T/C [20]: 3.03% | viability, T/C [21]: 1.7% | viability, T/C [22]: 1.4% | viability, T/C [23]: 0.45% | viability, T/C [24]: 0.47% | viability, T/C [25]: 4.28% | viability, T/C [26]: 2.29% | viability, T/C [27]: 1.7% | viability, T/C [28]: 1.31% | viability, T/C [29]: 0.58% | viability, T/C [30]: 2.36%

COc1cc(C2c3cc4c(cc3C(OC3OC5COC(C)OC5C(O)C3O)C3COC(=O)C23)OCO4)cc(OC)c1O (stereo not given) + NC1CCC(NC2CC2c2ccccc2)CC1
IC50 (second compound 0.1 µM): 24.2 nM | IC50 (second compound 0.316 µM): 25.9 nM | IC50 (second compound 1 µM): 27 nM | IC50 (second compound 3.16 µM): 27.5 nM | IC50 (second compound 10 µM): 26.8 nM | viability, T/C [3]: 86.3% | viability, T/C [4]: 34.6% | viability, T/C [5]: 26.9% | viability, T/C [6]: 35.2% | viability, T/C (second compound 0.1 µM, first compound 0.949 µM): 13.8% | viability, T/C (second compound 0.1 µM, first compound 3 µM): 3.12% | viability, T/C [9]: 87.3% | viability, T/C [10]: 36% | viability, T/C [11]: 28.2% | viability, T/C [12]: 36.1% | viability, T/C (second compound 0.316 µM, first compound 0.949 µM): 14% | viability, T/C (second compound 0.316 µM, first compound 3 µM): 3.11% | viability, T/C [15]: 86.8% | viability, T/C [16]: 37.7% | viability, T/C [17]: 28.6% | viability, T/C [18]: 35.5% | viability, T/C (second compound 1 µM, first compound 0.949 µM): 12.9% | viability, T/C (second compound 1 µM, first compound 3 µM): 3.58% | viability, T/C [21]: 87.5% | viability, T/C [22]: 37% | viability, T/C [23]: 30.1% | viability, T/C [24]: 33.8% | viability, T/C (second compound 3.16 µM, first compound 0.949 µM): 12.7% | viability, T/C (second compound 3.16 µM, first compound 3 µM): 3.14% | viability, T/C [27]: 83.2% | viability, T/C [28]: 38.2% | viability, T/C [29]: 30.4% | viability, T/C [30]: 26.7% | viability, T/C (second compound 10 µM, first compound 0.949 µM): 9.22% | viability, T/C (second compound 10 µM, first compound 3 µM): 2.85%

Nc1ccn(C2OC(CO)C(O)C2(F)F)c(=O)n1 (stereo not given) + NC1CCC(NC2CC2c2ccccc2)CC1
IC50 (second compound 0.1 µM): < 0.949 nM | IC50 (second compound 0.316 µM): < 0.949 nM | IC50 (second compound 1 µM): < 0.949 nM | IC50 (second compound 3.16 µM): < 0.949 nM | IC50 (second compound 10 µM): < 0.949 nM | viability, T/C [1]: 24% | viability, T/C [2]: 6.98% | viability, T/C [3]: 5.69% | viability, T/C [4]: 5.94% | viability, T/C [5]: 6.11% | viability, T/C [6]: 5.96% | viability, T/C [7]: 25.4% | viability, T/C [8]: 7.37% | viability, T/C [9]: 5.62% | viability, T/C [10]: 5.72% | viability, T/C [11]: 7.48% | viability, T/C [12]: 6.94% | viability, T/C [13]: 27.7% | viability, T/C [14]: 6.4% | viability, T/C [15]: 5.72% | viability, T/C [16]: 6.07% | viability, T/C [17]: 6% | viability, T/C [18]: 6% | viability, T/C [19]: 20.3% | viability, T/C [20]: 6.36% | viability, T/C [21]: 6.71% | viability, T/C [22]: 5.11% | viability, T/C [23]: 5.57% | viability, T/C [24]: 5.77% | viability, T/C [25]: 12.7% | viability, T/C [26]: 5.54% | viability, T/C [27]: 5.5% | viability, T/C [28]: 4.88% | viability, T/C [29]: 5.09% | viability, T/C [30]: 5.72%
